Test results reported in ChEMBL document CHEMBL4350974, “Synthesis and biological evaluation of methylpyrimidine-fused tricyclic diterpene analogs as novel oral anti-late-onset hypogonadism agents” (Eur J Med Chem, 2019).
Active and inactive are the calls of the source. The calls are words filed in the database; no cut-off is given here.

Key:
[1] = AUC (0 to infinity) in Sprague-Dawley rat plasma at 50 mg/kg, po by LC/MS analysis; format: ADME, organism-based; set-up: dose 50 mg/kg, route oral, time infinity
Rattus norvegicus [2] = assay: Anti late-onset hypogonadism activity in cyclophosphamide-induced Sprague-Dawley rat model of partial androgen deficiency assessed as inhibition of Leydig cells apoptosis at 50 to 100 mg/kg, po qd administered for 4 weeks by DAPI staining based TUNEL assay; format: functional, organism-based
Rattus norvegicus [3] = assay: Anti late-onset hypogonadism activity in cyclophosphamide-induced Sprague-Dawley rat model of partial androgen deficiency assessed as weight of seminal vesicles at 100 mg/kg, po qd administered for 4 weeks (reference value: 1.33 +/- 0.26 g); format: functional
[4] = Cmax in Sprague-Dawley rat plasma at 50 mg/kg, po up to 12 hrs by LC/MS analysis; format: ADME, organism-based; set-up: dose 50 mg/kg, route oral
TM3 [5] = assay: Induction of autophagy in mouse TM3 cells assessed as phosphorylation of AMPK at 10 to 100 uM by Western blot analysis; format: functional, cell-based
TM3 [6] = assay: Induction of autophagy in mouse TM3 cells assessed as increase in LC3 protein level at 10 to 100 uM after 24 hrs by DAPI staining based confocal microscopic method; format: functional, cell-based
[7] = Toxicity in cyclophosphamide - induced Sprague-Dawley rat model of partial androgen deficiency assessed as sperm viability at 50 mg/kg by semen analysis (reference value: 95.1 +/- 3.2 %); format: organism-based; conditions: in vivo
Rattus norvegicus [8] = assay: Anti late-onset hypogonadism activity in cyclophosphamide-induced Sprague-Dawley rat model of partial androgen deficiency assessed as increase in serum total testosterone level at 50 to 100 mg/kg, po qd administered for 4 weeks and measured every 2 weeks by ELISA; format: functional, organism-based
[9] = Cytotoxicity against human HAF cells assessed as reduction in cell viability measured after 24 hrs by sulforhodamine B assay; format: cell-based
[10] = Clearance in Sprague-Dawley rat at 5 mg/kg, iv up to 5 hrs by LC/MS analysis; format: ADME, organism-based; conditions: in vivo
[11] = Cytotoxicity against human L02 cells assessed as reduction in cell viability measured after 24 hrs by sulforhodamine B assay; format: cell-based
[12] = Toxicity in cyclophosphamide - induced Sprague-Dawley rat model of partial androgen deficiency assessed as sperm motility at 100 mg/kg by semen analysis (reference value: 88.3 +/- 7.3 %); format: organism-based; conditions: in vivo
TM3 [13] = assay: Induction of testosterone production in mouse TM3 cells assessed as increase in 3beta-HSD mRNA expression level after 24 hrs by qRT-PCR analysis; format: functional, cell-based
[14] = Toxicity in cyclophosphamide - induced Sprague-Dawley rat model of partial androgen deficiency assessed as sperm motility at 50 mg/kg by semen analysis (reference value: 88.3 +/- 7.3 %); format: organism-based; conditions: in vivo
[15] = Half-life in Sprague-Dawley rat plasma at 5 mg/kg, iv up to 5 hrs by LC/MS analysis; format: ADME, organism-based
TM3 [16] = assay: Induction of testosterone production in mouse TM3 cells assessed as increase in 3beta-HSD protein expression level after 24 hrs by Western blot analysis; format: functional, cell-based
[17] = Toxicity in cyclophosphamide - induced Sprague-Dawley rat model of partial androgen deficiency assessed as effect on heart at 50 to 100 mg/kg by HE staining based histopathological analysis; format: organism-based; conditions: in vivo
[18] = Initial plasma concentration in Sprague-Dawley rat plasma at 5 mg/kg, iv by LC/MS analysis; format: ADME, organism-based
TM3 [19] = assay: Induction of autophagy in mouse TM3 cells assessed as dephosphorylation of mTOR at 10 to 100 uM by Western blot analysis; format: functional, cell-based
Rattus norvegicus [20] = species on record: Rattus norvegicus; assay: Anti late-onset hypogonadism activity in cyclophosphamide-induced Sprague-Dawley rat model of partial androgen deficiency assessed as prevention of testicular atrophy; format: functional, organism-based
[21] = AUC (0 to t) in Sprague-Dawley rat plasma at 50 mg/kg, po up to 12 hrs by LC/MS analysis; format: ADME, organism-based; set-up: dose 50 mg/kg, time < 12 hr, route oral

- AUC(0-inf) [1]: 3140 ng·h/mL
- Cmax [4]: 239 ng/mL
- clearance [10]: 155 mL/min/kg
- half-life [15]: 7.59 h
- C0 [18]: 279 ng/mL
- AUC(0-t) at 12 h [21]: 3050 ng·h/mL
SMILES: CNC(=O)c1cc2c(cc1OC)[C@@]1(C)Cc3cnc(C)nc3C(C)(C)C1CC2 (mixture of isomers)
- inhibition (Rattus norvegicus [2]): Active
- Activity (Rattus norvegicus [3]): 1.68 g
- Activity (TM3 [5]): Active
- Activity (TM3 [6]): Active
- Activity [7]: 96.5%
- Activity (Rattus norvegicus [8]): Active
- CC50 at 24 h [9]: > 200 µM
- CC50 at 24 h [11]: > 200 µM
- Activity [12]: 94.6%
- Activity (TM3 [13]): Dose-dependent effect
- Activity [14]: 92.6%
- Activity (TM3 [16]): Dose-dependent effect
- Activity [17]: Non-Toxic
- Activity (TM3 [19]): Active
- Activity (Rattus norvegicus [20]): Active
